Experimental data published in patent publication US20230391765A1, “HETEROBIFUNCTIONAL COMPOUNDS AS DEGRADERS OF ENL” (ICAHN SCHOOL OF MEDICINE AT MOUNT SINAI, priority 2020, published 2023).

Tests used:
Type in all cases: cell-based
ENL [1] = target: T1, ENL (Homo sapiens, UniProt Q03111); assay: Western blot of ENL protein levels in MOLM13 cells
T1 construct: Cells were lysed and expression of endogenous ENL was assessed by Western blot analysis; host or cells: MV4;11
T1 sequence (Q03111 1-559): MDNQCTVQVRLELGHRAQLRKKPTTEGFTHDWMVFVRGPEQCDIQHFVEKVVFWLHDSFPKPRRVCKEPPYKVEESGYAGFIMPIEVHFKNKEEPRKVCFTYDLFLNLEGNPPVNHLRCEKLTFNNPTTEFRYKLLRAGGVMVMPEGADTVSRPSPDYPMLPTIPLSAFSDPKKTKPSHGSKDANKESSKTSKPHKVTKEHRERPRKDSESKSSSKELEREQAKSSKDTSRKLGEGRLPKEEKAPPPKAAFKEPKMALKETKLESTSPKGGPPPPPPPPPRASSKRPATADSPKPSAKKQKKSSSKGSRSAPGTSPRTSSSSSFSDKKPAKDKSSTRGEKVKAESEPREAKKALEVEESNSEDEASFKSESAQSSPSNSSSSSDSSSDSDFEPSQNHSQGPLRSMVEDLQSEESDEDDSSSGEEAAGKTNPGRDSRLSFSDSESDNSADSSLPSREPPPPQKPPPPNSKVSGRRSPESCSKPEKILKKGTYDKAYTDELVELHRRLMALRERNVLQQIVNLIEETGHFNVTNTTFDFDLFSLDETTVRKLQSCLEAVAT
Outline: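 Leukemia cells (MOLM13, MV4;11, Jurkat) treated with degraders in DMSO at 0–10 μM for 6 h or 24 h, or at 4 μM (MV4;11) / 8 μM (MOLM13) over 12–36 h. ENL levels read by Western blot of total lysates, GAPDH/β-actin loading controls; DMSO vehicle control.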

GAS41 = target: T2, GAS41 (Homo sapiens, UniProt O95619); assay: Western blot of GAS41 protein level in MV4; 11 cells; conditions: 11 cells, 0.3, 1, 3, 10 and 30 μM for 24 h
T2 construct: host or cells: MV4;11
Method: MV4; 11 cells were treated with LQ076-122, or LQ081-107 at 0.3, 1, 3, 10, and 30 μM for 24 h. DMSO treated cells were used as control. Cells were lysed and expression of ENL and GAS41 was assessed by Western analysis.
After ENL degrader treatment, cells were collected, lysed, and total cell lysates were used for Western blot. The following primary antibodies were used: ENL (Cell Signaling Technology), GAS41 (Santa Cruz), GAPDH (Santa Cruz), β-actin (Sigma). Blots were detected using HRP-conjugated secondary antibodies.

[2] = system: ENL-dependent MV4; 11 cells; assay: Cell viability (CellTiter-Glo), MV4; 11 cells; conditions: 11 cells, 0.5, 1, 2 and 4 μM for 72 h
Outline: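 MV4;11 cells (ENL-dependent) were seeded at 2×10^5 cells/mL and exposed to compound or DMSO, mostly for 72 h, with some runs at 3 or 6 days. Concentrations ranged from 10 nM to 10 μM depending on the run. Viability was read by CellTiter-Glo luminescence and normalized to DMSO.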

ENL [3] = target: T1, ENL; assay: Western blot of ENL protein levels in MV4; 11 cells
Outline: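 MV4;11 cells treated versus DMSO at 1 and 10 μM for 24 h or 6 h, or at 0.3-30 μM for 24 h; time course at 4 μM over 12-36 h. Proteasome dependence tested with 1 μM degrader ± 1 μM MG132 for 6 h. ENL (and GAS41) levels in total lysates assessed by Western blot with GAPDH/β-actin loading controls.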

T2 sequence (O95619 whole entry): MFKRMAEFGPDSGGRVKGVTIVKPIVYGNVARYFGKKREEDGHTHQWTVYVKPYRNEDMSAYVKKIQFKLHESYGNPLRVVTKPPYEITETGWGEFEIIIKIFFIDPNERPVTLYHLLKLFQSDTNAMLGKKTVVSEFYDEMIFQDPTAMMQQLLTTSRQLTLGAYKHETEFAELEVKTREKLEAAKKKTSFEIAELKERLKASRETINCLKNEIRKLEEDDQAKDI

Q: Which “reduction of ENL protein levels” value (ENL [1]; 0-8 μM for 24 h) does the source give for Cc1ncsc1-c1ccc(CNC(=O)[C@@H]2C[C@@H](O)CN2C(=O)[C@@H](NC(=O)CCCCCCCCCCNC(=O)c2ccc(C(=O)Nc3ccc4[nH]c(CN5CCC[C@@H]5C)nc4c3)cc2)C(C)(C)C)cc1 [LQ076-122, N^1-(11-(((S)-1-((2S,4R)-4-hydroxy-2-((4-(4-methylthiazol-5-yl)benzyl)carbamoyl)pyrrolidin-1-yl)-3,3-dimethyl-1-oxobutan-2-yl)amino)-11-oxoundecyl)-N^4-(2-(((S)-2-methylpyrrolidin-1-yl)methyl)-1H-benzo[d]imidazol-5-yl)terephthalamide] here?
A: The value was “reduced ENL protein levels in a concentration-dependent manner”.

Q: And the “reduction of ENL protein levels, time course” value (ENL [1]; 8 μM for 12, 16, 20, 24 and 36 h)?
A: The value was “reduced ENL protein levels in a time-dependent manner”.

Q: What about the “reduction of GAS41 protein level” value (GAS41) of the same compound?
A: Its value is “but not the level of another YEATS domain-containing protein GAS41”.

Q: What about the “suppression of cell growth (relative cell viability)” value [2] of the same compound?
A: Its value is “selectively suppressed cell growth”.

Q: What about the “reduction of ENL protein levels” value (ENL [3]; 11 cells, 0-8 μM for 24 h) of the same compound?
A: The value was “reduced ENL protein levels in a concentration-dependent manner”.

Q: And the “reduction of ENL protein levels, time course” value (ENL [3]; 11 cells, 4 μM for 12, 16, 20, 24 and 36 h)?
A: Its value is “reduced ENL protein levels in a time-dependent manner”.

Q: And the “reduction of ENL protein levels” value (ENL [3]; 11 cells, 10 μM, 24 h)?
A: The value was “effective in reducing ENL protein levels”.

Q: What about the “reduction of ENL protein level” value (ENL [3]; 11 cells, 0.3, 1, 3, 10 and 30 μM for 24 h) of the same compound?
A: The value was “selectively reduced the ENL protein level”.

Q: What about the “reduction of ENL protein levels” value (ENL [3]; 11 cells, 0.3, 1, 3 and 10 μM for 12 and 24 h) of the same compound?
A: The value was “reduced ENL protein levels in a concentration- and time-dependent manner”.
